From US9029406B2 (Seattle Genetics, Inc, priority 2011, dated 2015)
Where a SMILES comes first, the peptide text is derived from it. [ ]: non-standard residue; d: D form. The star is where a group is joined. Dolaproine = CO[C@@H]([C@@H]1CCCN1)[C@@H](C)C(=O)O; Dil = CC[C@H](C)[C@H](NC)[C@@H](CC(=O)O)OC; X1 = C[C@@H](N*)[C@@H](O)c1ccccc1; NMeV = CN[C@H](C(=O)O)C(C)C

Assays:
[1] = tested on: human colon carcinoma cell line HT29 wt; test: Antiproliferative effect on the HT29 wt cell line (MTT assay); type: cell-based; details: incubation 48 h to 96 h
Protocol: B-1. Determination of the Antiproliferative Effect on the HT29 Wt Cell Line:
A defined cell count of the human colon carcinoma cell line HT29 wt (wild type) was sown in a 96-well microtiter plate in whole medium (10% FCS-RPMI) (2500 cells/well) and incubated overnight at 37° C./5% CO2. After 18 hours, the inoculation medium was replaced by fresh medium with 10% FCS. The treatment started with addition of the respective test substance. Of the substances to be investigated, dose-effect curves were determined in a concentration range of 10^−5 M to 10^−14 M (1:10 dilution series). Incubation times of 48 h to 96 h were selected. Proliferation was detected with the help of the MTT assay (ATCC, Manassas, Va., USA, catalog no. 30-1010K). After the end of the selected incubation time, the MTT reagent was incubated with the cells for 4 h before lysis of the cells was performed overnight by adding the detergent. The dye that was formed was detected at 570 nm. The proliferation with otherwise identically treated cells but not with the test substance was defined as the 100% value. The data obtained from this test represents triple determinations, and at least two independent experiments were performed.

[2] = Cell permeability, flux assay using Caco-2 cells; type: in vitro ADME; details: human; Caco-2 flux assay, basal to apical, 2 h incubation
Protocol: (§1) B-4. Determination of Cell Permeability:
(§2) The cell permeability of a substance can be analyzed by in vitro testing in a flux assay using Caco-2 cells [M. D. Troutman and D. R. Thakker, Pharm. Res. 20 (8), 1210-1224 (2003)]. To do so, the cells were cultured for 15-16 days on 24-hole filter plates. To determine the permeation, the respective test substance was applied to the cells either apically (A) or basally (B) in a HEPES buffer and incubated for 2 h. After 0 h and after 2 h, samples were taken from the cis- and trans-compartments. The samples were separated by HPLC (Agilent 1200, Böblingen, Germany) using reverse phase columns. The HPLC system was coupled via a turbo ion spray interface to an API 4000 triple quadrupole mass spectrometer (Applied Biosystems Applera, Darmstadt, Germany). The permeability was evaluated on the basis of a Papp value, which was calculated using the equation published by Schwab et al. [D. Schwab et al., J. Med. Chem. 46, 1717-1725 (2003)]. A substance was classified as being actively transported if the ratio of Papp (B−A) to Papp (A−B) was >2 or <0.5.
(§3) The permeability of B to A [Papp (B−A)] is of crucial importance for toxophores that are released intracellularly. The lower this permeability, the longer is the dwell time of the substance in the cell after intracellular release and thus also the time available for an interaction with the biochemical target (here: tubulin).

[3] = tested on: Caco-2 cells; test: Cell permeability, flux assay using Caco-2 cells; type: in vitro ADME; details: Caco-2 flux assay, basal to apical, 2 h incubation
Protocol: as §1, §2, §3

[4] = Homo sapiens, HT-29, HT29 wt cells

| Compound | IC50 [1, 4] [nM] | Papp B→A at 2 h [2] [×10⁻⁶ cm/s] | Papp (B-A) [3] [×10⁻⁶ cm/s] | IC50 ([1]; HT29 wt cells) [nM] |
| --- | --- | --- | --- | --- |
| CC[C@H](C)[C@@H]([C@@H](CC(=O)N1CCC[C@H]1[C@H](OC)[C@@H](C)C(=O)N[C@H](/C=C\Cc1ccccc1)Cc1ccccc1)OC)N(C)C(=O)[C@@H](NC(=O)[C@H](C(C)C)N(C)CCCC(=O)O)C(C)C [Example 1, N-(3-Carboxypropyl)-N-methyl-L-valyl-N-[(3R,4S,5S)-1-{(2S)-2-[(1R,2R)-3-{[(2S,3Z)-1,5-diphenylpent-3-en-2-yl]amino}-1-methoxy-2-methyl-3-oxopropyl]pyrrolidin-1-yl}-3-methoxy-5-methyl-1-oxoheptan-4-yl]-N-methyl-L-valinamide] | 15 |  |  |  |
| CC[C@H](C)[C@@H]([C@@H](CC(=O)N1CCC[C@H]1[C@H](OC)[C@@H](C)C(=O)N[C@H](/C=C\c1ccccc1)Cc1ccccc1)OC)N(C)C(=O)[C@@H](NC(=O)[C@H](C(C)C)N(C)CCCC(=O)O)C(C)C [Example 2, N-(3-Carboxypropyl)-N-methyl-L-valyl-N-[(3R,4S,5S)-1-{(2S)-2-[(1R,2R)-3-{[(2S,3Z)-1,4-diphenylbut-3-en-2-yl]amino}-1-methoxy-2-methyl-3-oxopropyl]pyrrolidin-1-yl}-3-methoxy-5-methyl-1-oxoheptan-4-yl]-N-methyl-L-valinamide] | 3.3 | 15.7 |  |  |
| CC[C@H](C)[C@@H]([C@@H](CC(=O)N1CCC[C@H]1[C@H](OC)[C@@H](C)C(=O)N[C@H](/C=C/c1ccccc1)Cc1ccccc1)OC)N(C)C(=O)[C@@H](NC(=O)[C@H](C(C)C)N(C)CCCC(=O)O)C(C)C [Example 3, N-(3-Carboxypropyl)-N-methyl-L-valyl-N-[(3R,4S,5S)-1-{(2S)-2-[(1R,2R)-3-{[(2S,3E)-1,4-diphenylbut-3-en-2-yl]amino}-1-methoxy-2-methyl-3-oxopropyl]pyrrolidin-1-yl}-3-methoxy-5-methyl-1-oxoheptan-4-yl]-N-methyl-L-valinamide] | 0.3 | 17.9 |  |  |
| CC[C@H](C)[C@@H]([C@@H](CC(=O)N1CCC[C@H]1[C@H](OC)[C@@H](C)C(=O)N[C@@H](Cc1ccccc1)CS(=O)(=O)Cc1ccccc1)OC)N(C)C(=O)[C@@H](NC(=O)[C@H](C(C)C)N(C)CCCC(=O)O)C(C)C [Example 4] | 1.1 | 1.9 |  |  |
| CC[C@H](C)[C@@H]([C@@H](CC(=O)N1CCC[C@H]1[C@H](OC)[C@@H](C)C(=O)N[C@@H](Cc1ccccc1)c1nnc(-c2ccccc2)o1)OC)N(C)C(=O)[C@@H](NC(=O)[C@H](C(C)C)N(C)CCCC(=O)O)C(C)C [Example 5, N-(3-Carboxypropyl)-N-methyl-L-valyl-N-[(3R,4S,5S)-3-methoxy-1-{(2S)-2-[(1R,2R)-1-methoxy-2-methyl-3-oxo-3-{[(1S)-2-phenyl-1-(5-phenyl-1,3,4-oxadiazol-2-yl)ethyl]amino}propyl]pyrrolidin-1-yl}-5-methyl-1-oxoheptan-4-yl]-N-methyl-L-valinamide] | 0.1 | 2.9 |  |  |
| CC[C@H](C)[C@@H]([C@@H](CC(=O)N1CCC[C@H]1[C@H](OC)[C@@H](C)C(=O)N[C@H](Cc1ccccc1)c1nnc(-c2ccccc2)o1)OC)N(C)C(=O)[C@@H](NC(=O)[C@H](C(C)C)N(C)CCCC(=O)O)C(C)C [Example 6, N-(3-Carboxypropyl)-N-methyl-L-valyl-N-[(3R,4S,5S)-3-methoxy-1-{(2S)-2-[(1R,2R)-1-methoxy-2-methyl-3-oxo-3-{[(1R)-2-phenyl-1-(5-phenyl-1,3,4-oxadiazol-2-yl)ethyl]amino}propyl]pyrrolidin-1-yl}-5-methyl-1-oxoheptan-4-yl]-N-methyl-L-valinamide] | 0.1 | 4.5 |  |  |
| CC[C@H](C)[C@@H]([C@@H](CC(=O)N1CCC[C@H]1[C@H](OC)[C@@H](C)C(=O)NCCc1c[nH]c2ccccc12)OC)N(C)C(=O)[C@@H](NC(=O)[C@H](C(C)C)N(C)CCCC(=O)O)C(C)C [Example 7, N-(3-Carboxypropyl)-N-methyl-L-valyl-N-[(3R,4S,5S)-1-{(2S)-2-[(1R,2R)-3-{[2-(1H-indol-3-yl)ethyl]amino}-1-methoxy-2-methyl-3-oxopropyl]pyrrolidin-1-yl}-3-methoxy-5-methyl-1-oxoheptan-4-yl]-N-methyl-L-valinamide] |  | 1.1 |  |  |
| CC[C@H](C)[C@@H]([C@@H](CC(=O)N1CCC[C@H]1[C@H](OC)[C@@H](C)C(=O)NCCc1ccccc1)OC)N(C)C(=O)[C@@H](NC(=O)[C@H](C(C)C)N(C)CCCC(=O)O)C(C)C [Example 8, N-(3-Carboxypropyl)-N-methyl-L-valyl-N-[(3R,4S,5S)-3-methoxy-1-{(2S)-2-[(1R,2R)-1-methoxy-2-methyl-3-oxo-3-[(2-phenylethyl)amino]propyl}pyrrolidin-1-yl}-5-methyl-1-oxoheptan-4-yl]-N-methyl-L-valinamide] | 0.5 | 1 |  |  |
| CC[C@H](C)[C@@H]([C@@H](CC(=O)N1CCC[C@H]1[C@H](OC)[C@@H](C)C(=O)N[C@H](C)[C@@H](O)c1ccccc1)OC)N(C)C(=O)[C@@H](NC(=O)[C@H](C(C)C)N(C)CCCC(=O)O)C(C)C [Example 9, N-(3-Carboxypropyl)-N-methyl-L-valyl-N-[(3R,4S,5S)-1-{(2S)-2-[(1R,2R)-3-{[(1S,2R)-1-hydroxy-1-phenylpropan-2-yl]amino}-1-methoxy-2-methyl-3-oxopropyl]pyrrolidin-1-yl}-3-methoxy-5-methyl-1-oxoheptan-4-yl]-N-methyl-L-valinamide] | 6 | 0.45 |  |  |
| CC[C@H](C)[C@@H]([C@@H](CC(=O)N1CCC[C@H]1[C@H](OC)[C@@H](C)C(=O)N[C@H](/C=C/c1ccc(C(=O)O)cc1)Cc1ccccc1)OC)N(C)C(=O)[C@@H](NC(=O)[C@H](C(C)C)N(C)CCCC(=O)O)C(C)C [Example 11] | 4.5 | 0.2 |  |  |
| CC[C@H](C)[C@@H]([C@@H](CC(=O)N1CCC[C@H]1[C@H](OC)[C@@H](C)C(=O)N[C@H](C)[C@@H](O)c1ccccc1)OC)N(C)C(=O)[C@@H](NC(=O)[C@@H](NC)C(C)C)C(C)C [MMAE, monomethylauristatin E, reference compound] (H-[NMeV]V[Dil][Dolaproine]-X1) |  |  | 8.9 |  |
| CC[C@H](C)[C@@H]([C@@H](CC(=O)N1CCC[C@H]1[C@H](OC)[C@@H](C)C(=O)N[C@@H](Cc1ccccc1)C(=O)O)OC)N(C)C(=O)[C@@H](NC(=O)[C@@H](NC)C(C)C)C(C)C [MMAF, monomethylauristatin F, reference compound] (H-[NMeV]V[Dil][Dolaproine]F-OH) |  |  | 7.3 | 10 |
